Measured values as given in patent US7863449B2, “Modulators of muscarinic receptors” (Vertex Pharmaceuticals Incorporated, priority 2004, dated 2011).
Where a name gives a salt, the structure may show the parent alone.

Columns and labels:
[1] = molecular target: T1, M1 muscarinic receptor (Homo sapiens, UniProt P11229); experiment: Functional mobilization of intracellular calcium (FLIPR), M1-CHO cells; format: cell-based; conditions: for Emax: 100% efficacy is the maximum response obtained using Carbachol as a control; for M1 Activity: M1-CHO cells, FLIPR calcium mobilization
T1 construct: expressed in transfected cells; host or cells: CHO (M1-CHO)
T1 sequence (P11229 1-460): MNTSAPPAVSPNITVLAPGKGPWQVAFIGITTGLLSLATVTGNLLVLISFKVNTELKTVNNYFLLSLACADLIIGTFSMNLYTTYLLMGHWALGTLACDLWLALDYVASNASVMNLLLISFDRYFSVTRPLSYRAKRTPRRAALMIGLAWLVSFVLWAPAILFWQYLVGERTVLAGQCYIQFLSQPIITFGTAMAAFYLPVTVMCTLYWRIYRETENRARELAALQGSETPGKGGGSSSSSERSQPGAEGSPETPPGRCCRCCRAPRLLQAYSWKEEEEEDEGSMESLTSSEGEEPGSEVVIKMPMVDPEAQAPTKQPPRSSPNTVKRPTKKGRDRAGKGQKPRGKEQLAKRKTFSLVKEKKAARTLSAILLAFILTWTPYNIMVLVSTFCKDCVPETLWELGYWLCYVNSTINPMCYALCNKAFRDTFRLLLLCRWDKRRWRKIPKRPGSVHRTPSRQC
Method in brief: (§1)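 CHO cells expressing M1 or M4, loaded with Fluo-3 AM or Calcium 3 dye with 1 mM probenecid, 0.5% DMSO final. Agonist mode: compound added directly; antagonist mode: 15 min pre-incubation (or co-application) before carbachol at EC80. Fluorescence recorded 60 s on FLIPR.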

[2] = molecular target: T2, M4 muscarinic receptor (Homo sapiens, UniProt P08173); experiment: Functional mobilization of intracellular calcium (FLIPR), M4-CHO cells; format: cell-based; conditions: for Emax: 100% efficacy is the maximum response obtained using Carbachol as a control; for M4 Activity: M4-CHO cells, FLIPR calcium mobilization
T2 construct: expressed in transfected cells; host or cells: CHO (M4-CHO)
T2 sequence (P08173 1-479): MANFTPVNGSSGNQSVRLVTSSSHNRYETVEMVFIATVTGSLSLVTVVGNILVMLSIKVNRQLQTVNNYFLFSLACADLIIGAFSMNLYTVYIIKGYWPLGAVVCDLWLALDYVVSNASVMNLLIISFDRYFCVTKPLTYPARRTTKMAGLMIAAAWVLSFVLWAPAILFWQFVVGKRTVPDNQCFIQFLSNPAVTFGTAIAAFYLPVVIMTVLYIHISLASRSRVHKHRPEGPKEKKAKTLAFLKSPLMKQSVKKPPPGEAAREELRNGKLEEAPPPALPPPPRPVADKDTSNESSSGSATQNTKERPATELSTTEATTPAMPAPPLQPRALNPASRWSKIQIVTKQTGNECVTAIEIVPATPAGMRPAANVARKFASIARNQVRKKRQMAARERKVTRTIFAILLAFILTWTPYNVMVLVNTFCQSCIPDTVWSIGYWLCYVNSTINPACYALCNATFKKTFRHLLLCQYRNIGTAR
Method in brief: as §1

Row | SMILES | Emax [1] [%] | M1 Activity [1] | Emax [2] [%] | M4 Activity [2]
1 | Cc1ccc2c(c1)C1(CCN(C3CCOCC3)CC1)OC2=O [compound 180] | 25 to 100 | + (activity was measured to be greater than 5.0 μM) | 25 to 100 | + (activity was measured to be greater than 5.0 μM)
2 | CS(=O)(=O)N1Cc2ccccc2C2(CCN(C3CC4CCC(C3)N4C(=O)O[C@H]3CCOC3)CC2)C1 (some centres unmarked) [compound 181] | 25 to 100 | +++ (activity was measured to be less than 1.0 μM) | 25 to 100 | +++ (activity was measured to be less than 1.0 μM)
3 | CC(=O)N1Cc2ccccc2C2(CCN(CC3CCOCC3)CC2)C1 [compound 182] | < 25 | + (activity was measured to be greater than 5.0 μM) | < 25 | + (activity was measured to be greater than 5.0 μM)
4 | COCCOC(=O)N1C2CCC1CC(N1CCC3(CC1)CN(C(=O)OC)Cc1ccccc13)C2 (centres unmarked) [compound 183] | 25 to 100 | +++ (activity was measured to be less than 1.0 μM) | 25 to 100 | +++ (activity was measured to be less than 1.0 μM)
5 | CCCC(=O)N1Cc2ccccc2C2(CCN(CC3CCN(C(=O)OCC)CC3)CC2)C1 [compound 184] | 25 to 100 | +++ (activity was measured to be less than 1.0 μM) | 25 to 100 | +++ (activity was measured to be less than 1.0 μM)
6 | CCCC(=O)N1Cc2ccccc2C2(CCN(C3CCN(C(=O)OCC)CC3)CC2)C1 [compound 185] | 25 to 100 | +++ (activity was measured to be less than 1.0 μM) | 25 to 100 | +++ (activity was measured to be less than 1.0 μM)
7 | CCOC(=O)N1CCC(N2CCC3(CC2)CN(C(=O)OCC(C)C)Cc2ccccc23)CC1 [compound 186] | 25 to 100 | +++ (activity was measured to be less than 1.0 μM) | 25 to 100 | +++ (activity was measured to be less than 1.0 μM)
8 | CCC(=O)CN1CCC2(CC1)CN(C(C)=O)Cc1ccccc12 [compound 187] | < 25 | + (activity was measured to be greater than 5.0 μM) | < 25 | + (activity was measured to be greater than 5.0 μM)
9 | CC(=O)Oc1cccc(CN2CCC3(CC2)CN(C(C)=O)Cc2ccccc23)c1 [compound 188] | < 25 | + (activity was measured to be greater than 5.0 μM) | < 25 | + (activity was measured to be greater than 5.0 μM)
10 | CCCOC(=O)N1C2CCC1CC(N1CCC3(CC1)CN(C(=O)OC1CCC1)Cc1ccccc13)C2 (centres unmarked) [compound 189] | 25 to 100 | +++ (activity was measured to be less than 1.0 μM) | 25 to 100 | +++ (activity was measured to be less than 1.0 μM)
11 | CCOC(=O)N1C2CCC1CC(N1CCC3(CC1)CN(C(=O)C(O)(CC)CC)Cc1ccccc13)C2 (centres unmarked) [compound 190] | 25 to 100 | +++ (activity was measured to be less than 1.0 μM) | 25 to 100 | +++ (activity was measured to be less than 1.0 μM)
12 | CC(=O)N1Cc2ccccc2C2(CCN(Cc3cc4ccccc4s3)CC2)C1 [compound 191] | < 25 | + (activity was measured to be greater than 5.0 μM) | < 25 | + (activity was measured to be greater than 5.0 μM)
13 | COc1cccc(OC)c1CN1CCC2(CC1)CN(C(C)=O)Cc1ccccc12 [compound 192] | 25 to 100 | + (activity was measured to be greater than 5.0 μM) | 25 to 100 | + (activity was measured to be greater than 5.0 μM)
14 | CCOC(=O)N1C2CCC1CC(N1CCC3(CC1)CN(C(=O)C1CCCCC1)Cc1ccccc13)C2 (centres unmarked) [compound 193] | 25 to 100 | +++ (activity was measured to be less than 1.0 μM) | < 25 | +++ (activity was measured to be less than 1.0 μM)
15 | O=C(OC1CCC1)N1Cc2ccccc2C2(CCN(C3CC4CCC(C3)N4C(=O)OC3CCC3)CC2)C1 (centres unmarked) [compound 194] | 25 to 100 | +++ (activity was measured to be less than 1.0 μM) | 25 to 100 | +++ (activity was measured to be less than 1.0 μM)
16 | CC(C)OC(=O)N1Cc2ccccc2C2(CCN(C3CC4CCC(C3)N4C(=O)O[C@@H]3CCOC3)CC2)C1 (some centres unmarked) [compound 195] | 25 to 100 | +++ (activity was measured to be less than 1.0 μM) | 25 to 100 | +++ (activity was measured to be less than 1.0 μM)
17 | CCON=C1CCC(N2CCC3(CC2)CN(C(C)=O)Cc2ccccc23)CC1 (centres unmarked) [compound 196, 1-(1′-(4-(ethoxyimino)cyclohexyl)-1H-spiro[isoquinoline-4,4′-piperidine]-2(3H)-yl)ethanone] | 25 to 100 | +++ (activity was measured to be less than 1.0 μM) | 25 to 100 | +++ (activity was measured to be less than 1.0 μM)
18 | CCOC(=O)N1C2CCC1CC(N1CCC3(CC1)CN(C(C)=O)Cc1ccccc13)C2 (centres unmarked) [compound 197, ethyl 3-(2-acetyl-2,3-dihydro-1H-spiro[isoquinoline-4,4′-piperidine]-1′-yl)-8-azabicyclo[3.2.1]octane-8-carboxylate] | 25 to 100 | +++ (activity was measured to be less than 1.0 μM) | 25 to 100 | +++ (activity was measured to be less than 1.0 μM)
19 | CCOC(=O)N1CCC(CN2CCC3(CC2)CN(C(C)=O)Cc2ccccc23)CC1 [compound 198, Ethyl 4-((2-acetyl-2,3-dihydro-1H-spiro[isoquinoline-4,4′-piperidine]-1′-yl)methyl)piperidine-1-carboxylate hydrochloride] | 25 to 100 | +++ (activity was measured to be less than 1.0 μM) | 25 to 100 | +++ (activity was measured to be less than 1.0 μM)
20 | CC(=O)N1Cc2ccccc2C2(CCN(Cc3ccccc3F)CC2)C1 [compound 199] | < 25 | + (activity was measured to be greater than 5.0 μM) | 25 to 100 | + (activity was measured to be greater than 5.0 μM)
21 | CCOC(=O)N1C2CCC1CC(N1CCC3(CC1)CN(S(=O)(=O)c1sc(NC(C)=O)nc1C)Cc1ccccc13)C2 (centres unmarked) [compound 200] | 25 to 100 | +++ (activity was measured to be less than 1.0 μM) | 25 to 100 | +++ (activity was measured to be less than 1.0 μM)
22 | CCOC(=O)N1C2CCC1CC(N1CCC3(CC1)CN(S(C)(=O)=O)Cc1ccccc13)C2 (centres unmarked) [compound 201] | 25 to 100 | +++ (activity was measured to be less than 1.0 μM) | 25 to 100 | +++ (activity was measured to be less than 1.0 μM)
23 | CCOC(=O)N1CCC(N2CCC3(CC2)CN(C(=O)OC2CCC2)Cc2ccccc23)CC1 [compound 202] | 25 to 100 | +++ (activity was measured to be less than 1.0 μM) | 25 to 100 | +++ (activity was measured to be less than 1.0 μM)
24 | CCOC(=O)N1C2CCC1CC(N1CCC3(CC1)CN(C(=O)c1sc(C)nc1C)Cc1ccccc13)C2 (centres unmarked) [compound 203] | 25 to 100 | +++ (activity was measured to be less than 1.0 μM) | 25 to 100 | +++ (activity was measured to be less than 1.0 μM)
25 | CCOC(=O)N1CCC(N2CCC3(CC2)CN(C(=O)N(C)C)Cc2ccccc23)CC1 [compound 204] | 25 to 100 | +++ (activity was measured to be less than 1.0 μM) | 25 to 100 | +++ (activity was measured to be less than 1.0 μM)
26 | CCOC(=O)N1C2CCC1CC(N1CCC3(CC1)CN(S(=O)(=O)c1ccc(F)cc1)Cc1ccccc13)C2 (centres unmarked) [compound 205, Ethyl 3-(2-(4-fluorophenylsulfonyl)-2,3-dihydro-1H-spiro-[isoquinoline-4,4′-piperidine]-1′-yl)-8-azabicyclo[3.2.1]-octane-8-carboxylate hydrochloride] | 25 to 100 | +++ (activity was measured to be less than 1.0 μM) | 25 to 100 | +++ (activity was measured to be less than 1.0 μM)
